The record followed here is patent US20120324604A1, “PESTICIDAL MIXTURES CONTAINING ISOXAZOLINE DERIVATIVES AND A FUNGICIDE” (priority 2010, published 2012).

Assay type in all cases: cell-based
In test [1] the test system is Glomerella lagenarium (syn. Colletotrichum lagenarium). In words: Glomerella lagenarium (Anthracnose of Cucurbits) growth inhibition, microtiter plate, photometric. The following applies: alone. Here is the method:
Glomerella lagenarium (syn. Colletotrichum lagenarium), Anthracnose of Cucurbits:
(§1) Conidia of the fungus from cryogenic storage were directly mixed into nutrient broth (potato dextrose broth). After placing a (DMSO) solution of the test compounds into a microtiter plate (96-well format) the nutrient broth containing the fungal spores was added.

Test [2] concerns Gaeumannomyces graminis. In words: Gaeumannomyces graminis growth inhibition, microtiter plate, photometric. How it is done:
Mycelial fragments of the fungus from cryogenic storage were directly mixed into nutrient broth (potato dextrose broth). After placing a (DMSO) solution of the test compounds into a microliter plate (96-well format) the nutrient broth containing the fungal spores was added.

The subject of test [3] is Mycosphaerella arachidis (syn. Cercospora arachidicola). In words: Mycosphaerella arachidis (Brown Leaf Spot of Groundnut) growth inhibition, microtiter plate, photometric. Particulars: alone. How it is done: Mycosphaerella arachidis (syn. Cercospora arachidicola), Brown Leaf Spot of Groundnut (Peanut):
as §1

Test [4] relates to Rhizoctonia solani. In words: Rhizoctonia solani (Foot Rot, Damping-Off) growth inhibition, microtiter plate, photometric. Here is the method:
Rhizoctonia solani (Foot Rot, Damping-Off):
Mycelial fragments of the fungus from cryogenic storage were directly mixed into nutrient broth (potato dextrose broth). After placing a (DMSO) solution of the test compounds into a microtiter plate (96-well format) the nutrient broth containing the fungal spores was added.

Test [5] has as its system Septoria tritici. In words: Septoria tritici (Leaf Blotch) growth inhibition, microtiter plate, photometric. Here is the method:
Septoria tritici (Leaf Blotch):
as §1

Test [6] has as its system Fusarium culmorum. In words: Fusarium culmorum (Root Rot) growth inhibition, microtiter plate, photometric. Particulars: alone, 2 PPM AI. How it is done: Fusarium culmorum (Root Rot):
as §1

For test [7], the system named is Pythium ultimum. In words: Pythium ultimum (Damping Off) growth inhibition, microtiter plate, photometric. Here is the method: Pythium ultimum (Damping Off):
Mycelial fragments of the fungus, prepared from a fresh liquid culture, were directly mixed into nutrient broth (potato dextrose broth). After placing a (DMSO) solution of the test compounds into a microtiter plate (96-well format) the nutrient broth containing the fungal spores was added.

Setting [8] is: single compound at 0.0078125 ppm AI.
The mark [9] stands for this setting: single compound at 0.0625 ppm AI.
Setting [10] is: single compound at 0.125 ppm AI.

Where “and” joins values, the source holds several entries; their conditions need not be identical. Equal values may be shown once.

Regarding `CO/C=C(\C(=O)OC)c1ccccc1Oc1cc(Oc2ccccc2C#N)ncn1` [Azoystrobin], the “AVERAGE DEAD IN %” value is 0% in test [1] (0.0078125 ppm AI), 50% in test [1] (0.015625 ppm AI), 50% in test [1] (0.03125 ppm AI) and 70% in test [1] (0.0625 ppm AI).
As to `Cn1cc(C(=O)Nc2cccc3c2C2CCC3C2=C(Cl)Cl)c(C(F)F)n1` (stereo not drawn) [COMPOUND III], the “AVERAGE DEAD IN %” value is 0% in test [2] (single compound at 0.00390625 ppm AI); 0% in test [2] (setting [8]); 70% and 90% in test [2] (setting [9]); 90% in test [2] (setting [10]); 100% in test [2] (single compound at 0.25 ppm AI); 100% in test [2] (single compound at 0.5 ppm AI). In addition, the “AVERAGE DEAD IN %” value in test [2] (single compound at 1 ppm AI) is on record as 100%; in test [2] (single compound at 2 ppm AI) it was 100%; in test [1] (0.0078125 ppm AI) it was 0%; in test [1] (0.015625 ppm AI) it was 0%; in test [1] (0.125 ppm AI), 50%; in test [3] (0.0078125 ppm AI), 0%. Besides, the “AVERAGE DEAD IN %” value in test [3] (0.015625 ppm AI) was 0%; in test [3] (0.03125 ppm AI), 20%; in test [3] (0.0625 ppm AI) it was 90%; in test [3] (0.03125 PPM AI) it was 70% and 50%; in test [3] (0.0625 PPM AI), 100% and 70% and 90%; in test [3] (0.125 PPM AI), 90%. Also, the “AVERAGE DEAD IN %” value was 90% in test [4] (applied alone, 0.03125 ppm AI); 20% in test [5] (0.125 ppm AI, alone); 70% and 50% in test [5] (0.25 ppm AI, alone); 90% in test [5] (0.5 ppm AI, alone). Also, the “AVERAGE DEAD IN % COMPOUND III” value in test [5] (COMPOUND III alone, 0.0078125 ppm AI) was 0%; in test [5] (COMPOUND III alone, 0.015625 ppm AI), 0%; in test [5] (COMPOUND III alone, 0.03125 ppm AI) it was 0%; in test [5] (COMPOUND III alone, 0.0625 ppm AI), 0%; in test [5] (COMPOUND III alone, 0.125 ppm AI), 20%; in test [5] (COMPOUND III alone, 0.25 ppm AI), 50% and 70%. The “AVERAGE DEAD IN % COMPOUND III” value in test [5] (COMPOUND III alone, 0.5 ppm AI) is recorded as 70%; in test [5] (COMPOUND III alone, 1 ppm AI), 90%.
For `CC(C1CC1)C(O)(Cn1cncn1)c1ccc(Cl)cc1` (stereo not drawn) [Cyproconazole], the “AVERAGE DEAD IN %” value in test [2] (single compound at 0.25 ppm AI) was 20%; in test [2] (single compound at 0.5 ppm AI), 50% and 90%; in test [2] (single compound at 1 ppm AI), 70%; in test [2] (single compound at 2 ppm AI) it was 90%; in test [3] (0.125 ppm AI) it was 70%; in test [3] (0.0625 PPM AI), 0%. The “AVERAGE DEAD IN %” value in test [3] (0.125 PPM AI) is 20%; in test [3] (0.25 PPM AI) it was 70% and 100%; in test [3] (0.5 PPM AI), 100%; in test [4] (applied alone, 0.25 ppm AI), 20%; in test [4] (applied alone, 2 ppm AI), 70% and 100%; in test [5] (0.25 ppm AI, alone) it was 20%. Moreover, the “AVERAGE DEAD IN %” value turned out to be 50% in test [5] (0.5 ppm AI, alone); 70% in test [5] (1 ppm AI, alone); 90% in test [5] (2 ppm AI, alone); 0% in test [5] (alone, 0.25 ppm AI); 50% in test [5] (alone, 0.5 ppm AI); 70% in test [5] (alone, 1 ppm AI). Besides, the “AVERAGE DEAD IN %” value is 70% in test [5] (alone, 2 ppm AI) and 20% in test [6]. The “AVERAGE DEAD IN % Cyproconazole” value in test [5] (Cyproconazole alone, 0.5 ppm AI) is recorded as 50%; in test [5] (Cyproconazole alone, 1 ppm AI) it was 70%; in test [5] (Cyproconazole alone, 2 ppm AI), 90%.
On to `CC(C)C1C2CCC1c1c(NC(=O)c3cn(C)nc3C(F)F)cccc12` (stereo not drawn) [Isopyrazam, reference compound], for which the “AVERAGE DEAD IN %” value in test [2] (applied alone, 0.25 ppm AI) was 0%; in test [2] (applied alone, 0.5 ppm AI), 0%; in test [2] (single compound at 0.5 ppm AI), 0%; in test [2] (single compound at 2 ppm AI), 50%; in test [3] (0.0078125 ppm AI), 0%; in test [3] (0.015625 ppm AI), 0%. Moreover, the “AVERAGE DEAD IN %” value was 20% in test [3] (0.03125 ppm AI); 70% and 90% in test [3] (0.0625 ppm AI); 0% in test [3] (0.015625 PPM AI); 20% in test [3] (0.03125 PPM AI); 50% and 70% in test [3] (0.0625 PPM AI); 0% in test [4] (applied alone, 0.015625 ppm AI). In addition, the “AVERAGE DEAD IN %” value in test [4] (applied alone, 0.125 ppm AI) was 70% and 90% and 100%; in test [4] (applied alone, 0.25 ppm AI), 90%; in test [4] (setting [8]) it was 0%; in test [4] (single compound at 0.015625 ppm AI) it was 0%; in test [4] (single compound at 0.03125 ppm AI), 0%; in test [4] (setting [9]), 50%. Moreover, the “AVERAGE DEAD IN %” value is reported as 70% in test [4] (setting [10]); 90% in test [4] (single compound at 0.25 ppm AI); 20% in test [5] (0.0625 ppm AI, alone); 50% in test [5] (0.125 ppm AI, alone); 70% in test [5] (0.25 ppm AI, alone); 90% in test [5] (0.5 ppm AI, alone). In addition, the “AVERAGE DEAD IN %” value in test [5] (alone, 0.0078125 ppm AI) is on record as 0%; in test [5] (alone, 0.015625 ppm AI), 0%; in test [5] (alone, 0.03125 ppm AI), 0%; in test [5] (alone, 0.0625 ppm AI), 20%; in test [5] (alone, 0.125 ppm AI), 50%; in test [5] (alone, 0.25 ppm AI), 70%. For the same molecule, the “AVERAGE DEAD IN %” value in test [5] (alone, 0.5 ppm AI) was 90%. Further, the “AVERAGE DEAD IN % Isopyrazam” value was 20% in test [5] (Isopyrazam alone, 0.0625 ppm AI); 90% and 70% in test [5] (Isopyrazam alone, 0.25 ppm AI); 90% in test [5] (Isopyrazam alone, 0.5 ppm AI).
As for `C#CCOc1ccc(CCNC(=O)C(OCC#C)c2ccc(Cl)cc2)cc1OC` (stereo not drawn) [Mandipropamid, reference compound], the “AVERAGE DEAD IN %” value in test [2] (single compound at 0.25 ppm AI), in test [2] (single compound at 0.5 ppm AI) and in test [2] (single compound at 1 ppm AI) was 0% in each case.
For the molecule `COCC(=O)N(c1c(C)cccc1C)[C@H](C)C(=O)OC` [Mefenoxam, reference compound], the “AVERAGE DEAD IN %” value in test [2] (single compound at 0.25 ppm AI) is 0%; in test [2] (single compound at 0.5 ppm AI) it was 0%; in test [2] (single compound at 1 ppm AI) it was 0%; in test [7] (setting [10]) it was 50% and 70%; in test [7] (single compound at 0.25 ppm AI), 70% and 90%; in test [7] (single compound at 0.5 ppm AI), 90% and 100%. The “AVERAGE DEAD IN %” value in test [7] (single compound at 1 ppm AI) and in test [7] (single compound at 2 ppm AI) was 100% throughout.
